Patent US3984415A, “1-Nitrophenylpyrido [2,3-d] pyrimidine-2,4(1H,3H)-diones” (Hisamitsu Pharmaceutical Co., Inc., priority 1973, dated 1976)
Read-outs that look alike come from different tables or passages of the source.

Tests used:
[1] = Analgetic effect (acetic acid writhing syndrome); assay type: in vivo, dd-strain male mice; conditions: Mus musculus, po; orally, mice, acetic acid writhing
Method: Each test compound suspended in 0.5 % tragacanth-saline solution was orally administered to dd-strain male mice (18-20 g). After one hour 0.6% acetic acid solution was intraperitoneally injected in a volume of 0.1 ml/10 g.

dd-strain male mice = conditions: 72 hours
Method: The lethal dose was estimated from the death of animals 72 hours after administration.

[2] = Anti-inflammatory effect (carrageenin edema of hind paw); assay type: in vivo, Wistar-strain male rats; conditions: Rattus norvegicus, po, orally, rats, 3 hours, read-out: anti-inflammatory effect (inhibition percentage of carrageenin edema)
Method: 2. Anti-inflammatory effect
A group of five Wistar-strain male rats (100-150 g) were orally administered with each test compound suspended in 0.5 % tragacanth-saline solution. After 30 minutes 0.5 %-1.0 % carrageenin suspended in the water for injection was injected subcutaneously to a hind paw. After 3 hours the carrageenin edema was measured by volume and the inhibition percentage was determined with respect to the results for the control animals. The inhibition percentages were shown with the notations as follows: […]

[3] = Analgetic effect (acetic acid writhing syndrome); assay type: in vivo, dd-strain male mice; conditions: Mus musculus, ip, mice

Structure (SMILES)	ED50 [1] [mg/kg]	acute toxicity (lethal dose) (dd-strain male mice; i.p.) [mg/kg]	acute toxicity (lethal dose) (dd-strain male mice; p.o.) [mg/kg]	inhibition in vivo at 10 mg/kg [2] [%]	inhibition in vivo at 50 mg/kg [2] [%]	inhibition in vivo at 100 mg/kg ([2]; dose 100 mg/kg) [%]	ED50 [3] [mg/kg]
O=c1c2cccnc2n(-c2cccc([N+](=O)[O-])c2)c(=S)n1CC(F)(F)F [Compound 39]	0.23	> 1000	> 2000	> 61	46 to 60	–	–
O=C(Cn1c(=O)c2cccnc2n(-c2cccc([N+](=O)[O-])c2)c1=O)c1ccc(Cl)cc1 [O --CH2 CO]	> 100	> 1000	> 2000	–	–	< 15	–
Cc1c(N(C)C)c(=O)n(-c2ccccc2)n1C [aminopyrine, reference compound]	–	100 to 300	–	< 15	< 15	–	56
O=C(O)c1ccccc1Nc1cccc(C(F)(F)F)c1 [flufenamic acid, reference compound]	180	300 to 1000	–	< 15	16 to 30	–	–
